According to publication PMC10638401, “Mannich-type modifications of (−)-cannabidiol and (−)-cannabigerol leading to new, bioactive derivatives” (Scientific Reports, 2023):
In brackets after ≈: the same amount, converted by molar mass.

Experiments:
SARS-CoV-2 = SARS-CoV-2 cytopathic effect (CPE) inhibition assay in Vero E6 cells (XTT); format: cell-based; settings: Severe acute respiratory syndrome coronavirus 2, Vero C1008, 72 h; Vero E6 cells, 3 days post-infection, XTT
Method: CBD and CBG derivatives were further tested for their ability to inhibit SARS-CoV-2 replication in Vero E6 cells. Initially, the inhibition of virus-induced cytopathic effect was measured by addition of twofold serial dilutions of each derivative to the cells, followed by the infection with SARS-CoV-2 and determination of the cell viability 3 days post-infection by XTT assay. Concurrently, the cytotoxicity of each compound was assessed from identical dilutions in uninfected Vero E6 cells. To confirm anti-SARS-CoV-2 activity in the CPE inhibition assay, selected compounds were tested in immunofluorescence assay, where inhibition of SARS-CoV-2 replication was monitored as reduction in nucleoprotein expression using fluorescence microscope. […] Among the CBG derivatives, we can find quite cytotoxic and non-cytotoxic derivatives as well.
For CPE-based assay, two-fold fold serial dilutions of compounds from 100 µM were added in triplicate in a 384-well plate with 5000 Vero E6 cells in DMEM medium with 2% FBS, 100 U of penicillin/ml and 100 µg of streptomycin/ml (all Merck). After 1 h incubation SARS-CoV-2 (strain hCoV-19/Czech Republic/NRL_6632_2/2020) was added at multiplicity of infection […]. Following three days incubation at 37 °C in 5% CO2 the cell viability was determined by addition of XTT solution (Sigma-Aldrich) for 4 h and the absorbance was measured using EnVision plate reader (Perkin Elmer). Drug concentrations required to reduce viral cytopathic effect by 50% (EC50) were calculated using nonlinear regression from plots of percentage cell viability versus log10 drug concentration using GraphPad Prism (version 9.0.0, GraphPad Software, LLC). For immunofluorescence assay, two-fold fold serial dilutions of compounds from 100 µM were added in triplicate in 96-well plate with 15,000 Vero E6 cells plated day before in the same medium as above. After 1 h incubation, SARS-CoV-2 was added at multiplicity of infection 0.05 IU/cell. After three days of incubation, cells were fixed with 4% paraformaldehyde, permeabilized with 0.2% Triton X100 (both Merck), washed, incubated with anti-SARS-CoV-2antibody (mouse monoclonal antibody detecting SARS-CoV-2 nucleoprotein) for 2 h at room temperature. Followed by 1.5 h incubation with Cy3-labeled donkey anti-mouse IgG (Jackson ImmunoResearch Europe) and documented using fluorescence microscope with camera (Olympus). Images were processed in ImageJ software (NIH) and compound concentrations required to reduce fluorescence by 50% (EC50s) were calculated from plots of percentage of fluorescent cells versus log10 drug concentration using nonlinear regression analysis as above. Cytotoxicity was evaluated by incubating with the same two-fold serial dilutions of each compound as above with Vero E6 cells in 384-well plate.

Pseudomonas aeruginosa = assay: Antibacterial effect, broth micro dilution; format: cell-based
[1] = tested on: Staphylococcus epidermidis biofilm forming; assay: MIC, broth micro dilution; settings: Staphylococcus epidermidis
Method: (§3) According to CLSI guideline the Minimal Inhibitory Concentrations (MICs) of the prepared compounds were determined with the broth micro dilution method. After an overnight growth on 5% bovine blood agar plates at 35 °C bacterial strains were suspended in physiological saline in order to reach the density of 0.5 McFarland for inoculation. Stock solutions containing different concentrations of the substances were prepared in DMSO and H2O (1:1). These were twofold serially diluted from 256 to 0.5 mg/l in Mueller–Hinton broth, and 100 ml of each dilution was inoculated with 10 ml of each bacterial suspension.

Escherichia coli = assay: Antibacterial effect, broth micro dilution; format: cell-based
in vitro = settings: African green monkey
[2] = tested on: Enterococcus faecalis 51299 VanB; assay: MIC, broth micro dilution; settings: Enterococcus faecalis, 51299VANB
MCF7 cells = assay: Antiproliferative MTT assay, 72 h; format: cell-based, human; settings: Homo sapiens, MCF7, 30 μM, read-out: inhibition of the proliferation
From the text: (§1) Human adherent cancer cell lines A2780, MDA-MB-231 and MCF-7 were obtained from ECACC (European Collection of Cell Cultures, Salisbury, UK; Cat. No.93112519, 92020424, 86012803, respectively). SiHa cell line was obtained from ATCC (American Tissue Culture Collection, Manassas, Virginia, USA; Cat. No. HTB-35). All cell lines used for antiproliferative assay were maintained in Eagle's Minimum Essential Medium (EMEM) completed with 10% fetal bovine serum (FBS), 1% non-essential amino acid solution, and 1% penicillin, streptomycin, and amphotericin B mixture under cell culture conditions described before. All the utilized media and supplements were purchased from Lonza Group Ltd. (Basel, Switzerland).
(§2) The antiproliferative actions of the prepared molecules were determined by the same assay against a panel of adherent human cancer cell lines containing cervical (SiHa), ovarian (A2780) and breast (MCF7, MDA-MB-231) cell lines. Cells were plated onto 96-well microplates (5000 cells/well) and after an overnight incubation treated with two concentrations (10 or 30 μM) of the test substances for 72 h under cell culture conditions. Subsequently, MTT (5 mg/ml in phosphate buffer) was added to the wells, followed by incubation for 4 h. The supernatant was removed, the formazan crystals were then dissolved in 100 µl DMSO. Finally, absorbance values were determined by a microplate reader (BMG Labtech, Ortenberg, Germany) at 545 nm. Two independent measurements were performed with five parallel wells. Results were expressed as percentage of cell proliferation inhibition compared to non-treated control samples regarded as 0%.

A2780 cells = assay: Antiproliferative MTT assay, 72 h; format: cell-based, human; settings: Homo sapiens, A2780, 30 μM, read-out: inhibition of the proliferation
From the text: as §1, §2

[3] = tested on: Staphylococcus epidermidis mecA; assay: MIC, broth micro dilution; settings: Staphylococcus epidermidis
Method: as §3

[4] = tested on: Enterococcus faecalis 15 376 VanA; assay: MIC, broth micro dilution; settings: Enterococcus faecalis, 15376VANA
Method: as §3

[5] = tested on: Klebsiella pneumoniae carbapenemase-producing bacteria; assay: Antibacterial effect, broth micro dilution
Method: as §3

[6] = tested on: Enterococcus faecalis 29 212; assay: MIC, broth micro dilution; settings: Enterococcus faecalis, 29212
Method: as §3

Bacillus subtilis = assay: MIC, broth micro dilution
Method: as §3

[7] = tested on: MSSA (Methicillin Sensitive Staphylococcus aureus); assay: MIC, broth micro dilution; settings: Staphylococcus aureus
SZ95 sebocytes = assay: Viability MTT-assay on sebocytes, 48 h; format: cell-based, human; settings: 30 μM
Method: Human immortalized SZ95 sebocytes, originated from human facial sebaceous glands[50] were provided by prof. Christos C. Zouboulis, and were cultured in Sebomed® Basal Medium (Cat. No. F8205; Sigma-Aldrich) supplemented with 10% FBS (Gibco-Thermo Fisher Scientific), 1 mM CaCl2 (Cat. No. C7902; Sigma-Aldrich), 5 ng/ml human epidermal growth factor (Cat. No. E9644; Sigma-Aldrich), and MycoZap™ Plus-CL (1:500; Lonza). The medium was changed every other day, and cells were subcultured at 60–70% confluence.
The viability of HaCaT keratinocytes and SZ95 sebocytes was determined by MTT-assay[58] (Cat. No. M5655; Sigma-Aldrich) measuring the conversion of the tetrazolium salt to formazan by mitochondrial dehydrogenases. Cells were plated in 96-well plates (20,000 cells/well), and were treated as indicated. Cells were then incubated with 0.5 mg/ml MTT reagent for 3 h, and concentration of formazan crystals (as an indicator of number of viable cells) was determined colorimetrically at 565 nm by using FlexStation 3 multi-mode microplate reader (Molecular Devices). Results were expressed as percentage of vehicle-treated control regarded as 100%.

[8] = tested on: MRSA (Methicillin Resistant Staphylococcus aureus); assay: MIC, broth micro dilution; settings: Staphylococcus aureus
Method: as §3

[9] = tested on: multidrug-resistant Acinetobacter baumannii; assay: Antibacterial effect, broth micro dilution
Method: as §3

Q: What does the source list for CCCCCc1cc(O)c(C/C=C(\C)CCC=C(C)C)c(O)c1 [Compound 2, (−)-cannabigerol]?
A: EC50 (SARS-CoV-2): > 11 µM; antibacterial effect (no effect up to) (Pseudomonas aeruginosa): > 256 µg/mL; MIC [1]: 8 µg/mL (≈ 25.3 µM); antibacterial effect (no effect up to) (Escherichia coli): > 256 µg/mL; CC50 (in vitro): ~11 µM; MIC [2]: 4 µg/mL (≈ 12.6 µM); inhibition at 30 µM (MCF7 cells): > 90%; inhibition at 30 µM (A2780 cells): > 90%; MIC [3]: 8 µg/mL (≈ 25.3 µM); MIC [4]: 4 µg/mL (≈ 12.6 µM); antibacterial effect (no effect up to) [5]: > 256 µg/mL; MIC [6]: 4 µg/mL (≈ 12.6 µM); MIC (Bacillus subtilis): 2 µg/mL (≈ 6.32 µM); MIC [7]: 4 µg/mL (≈ 12.6 µM); viability (MTT signal intensity) (SZ95 sebocytes): tended to suppress viability; MIC [8]: 4 µg/mL (≈ 12.6 µM); antibacterial effect (no effect up to) [9]: > 256 µg/mL
